# Source: paper PMC5524190 (Biochemistry, 2016)
# Target: BaIMPDHΔL
# Assay type: biochemical, Bacillus anthracis
# Details: read-out: k−7/k7, equilibrium dissociation constant of NAD+ substrate inhibition
smiles,measurement,value
NC(=O)c1ccc[n+]([C@@H]2O[C@H](COP(=O)([O-])OP(=O)(O)OC[C@H]3O[C@@H](n4cnc5c(N)ncnc54)[C@H](O)[C@@H]3O)[C@@H](O)[C@H]2O)c1 [NAD^+],Kd,5.5 mM
